Source: publication PMC11637483, “Dissecting caspase-2-mediated cell death: from intrinsic PIDDosome activation to chemical modulation” (Protein & Cell, 2024)

Legend:
[1] = system: mouse caspase-2-expressing HeLa cells; assay: Cell death and caspase-2 processing in HeLa TKO cells expressing mouse caspase-2; format: cell-based; conditions: high concentrations of HUHS015
Excerpt: Figure 4. HUHS015 activates human caspase-2 directly through specific targeting of the interdomain linker of caspase-2. (A) The direct binding between HUHS015-36 and MBP-fused human caspase-2 pro-domain was detected by microscale thermophoresis (MST). MST profiles for raw binding signals and affinity (KD) measurement are shown. The calculated dissociation constant (KD) is expressed as means ± s.d. from two determinations. (B) Sequence alignment of the pro-domain (residues 1–169) of human and mouse caspase-2. CARD domain annotation is shown on top of the sequences. Identical residues are in red background and conserved ones are in red. Numbers of starting residues are indicated on the left. Different residues in the interdomain linker (residues 122–169) were highlighted with green color. (C) HUHS015 activates human but not mouse caspase-2. HeLa TKO cells rescued with human or mouse caspase-2 expression were treated with HUHS015 for the indicated time. […] ATP-based cell viability in panels (C–E) is expressed as mean ± s.d. from three technical replicates. […] TEXT PRINTED IN THE PICTURE: (A) HUHS015-36: MBP-CASP2(32–165) vs. HUHS015-36: KD (μmol/L): 22.05 ± 6.151; MBP vs. HUHS015-36: KD (μmol/L): Not detected […]
(§1) Cell viability was measured by the ATP assay using the CellTiter-Glo® Luminescent Cell Viability Assay kit (Promega).

[2] = system: Hepa1-6 cells; assay: Cell death and caspase-2 processing in Hepa1-6 cells; format: cell-based, mouse; conditions: Hepa1-6, 8 h
Excerpt: (§2) We further examined whether HUHS015-derived compounds could activate endogenous caspase-2 in human cells. […] Complementing the CASP2^−/− Jurkat cells with exogenous caspase-2 restored HUHS015-36-induced apoptosis, in which caspase-2 was expectedly processed (Fig. 5A and 5B). We also profiled caspase-2 expression in a panel of 10 mouse tumor cell lines and observed highly variable expression levels (Fig. 5C). […] In B16-F10 (melanoma), LLC1 (Lewis lung carcinoma), MB49 (bladder carcinoma), KPC (pancreatic ductal adenocarcinoma), and 4T1 (mammary carcinoma) cells, caspase-2 was expressed at much lower levels (Fig. 5C). In contrast, EMT6 (mammary carcinoma), EL4 (T lymphoblast), and Hepa1-6 (hepatoma) feature robust caspase-2 expression, much higher than in Jurkat cells (Fig. 5C).
Figure 5. HUHS015-36 activates endogenous caspase-2 to induce apoptosis in Jurkat cells but not mouse cells. (A and B) HUHS015-36 activates endogenous caspase-2 and induces apoptosis in human Jurkat cells. […] Lysates of 10 mouse cancer cell lines were analyzed by immunoblotting using indicated antibodies. […] ATP cell viability (A and D) is expressed as mean ± s.d. from three technical replicates. […]
as §1

[3] = system: Jurkat cells; assay: Cell death and caspase-2 processing in Jurkat cells (endogenous caspase-2); format: cell-based, human; conditions: 8 h
Excerpt: as §2
Figure 5. HUHS015-36 activates endogenous caspase-2 to induce apoptosis in Jurkat cells but not mouse cells. […] Lysates of 10 mouse cancer cell lines were analyzed by immunoblotting using indicated antibodies. […] ATP cell viability (A and D) is expressed as mean ± s.d. from three technical replicates. […]
as §1
To stimulate caspase-2 activation, PIDD1-CC controlled by a Tet-On inducible system was introduced into indicated cells. […] Cell lysates were analyzed by standard immunoblotting.

Cc1ccc2nc(-n3nc(C)c(Cc4ccccc4)c3O)[nH]c2c1 [HUHS015]
apoptosis / caspase-2 processing [1]: no apoptosis

Cc1cccc2nc(-n3nc4c(c3O)CCCC4)[nH]c12 [HUHS015-36]
caspase-2 processing and cell death [2]: no caspase-2 processing and cell death were detected
caspase-2 processing and cell death ([3]; CASP2 knockout Jurkat cells): completely diminished
caspase-2 processing and cell death ([3]; WT Jurkat cells): induced evident caspase-2 processing and cell death
